{"source": "patent US20140322227A1", "about": "“PEPTIDES FOR TREATMENT OF BONE DEFICIENCY AND AUTOIMMUNE DISORDERS” (H. LEE MOFFITT CANCER CENTER & RESEARCH INSTITUTE, INC., priority 2013, published 2014)", "key": {"RAW 264.7 cells": {"tested_on": "RAW 264.7 cells", "assay": "Annexin V flow cytometry cell death assay in RAW 264.7 cells", "format": "cell-based, murine", "description": "FIGS. 5A-5D show the effect of a cyclic HYD1 peptide (MTI-101) on RAW 264.7 cells (FIGS. 5A and 5B) and on RAW 264.7 cell-differentiated osteoclasts (FIGS. 5C and 5D). RAW 264.7 cells were treated with 6.25 to 50 μM MTI-101 and at the end of 24 hrs the cells were scrapped and spun down. After a single wash the cells were stained with Annexin V-FITC dye. The resulting Annexin V positivity was determined using Calibur Flow cytometry. RAW 264.7 cells were treated with 6.25 to 50 μM and incubated for 72 hrs. At the end of the incubation 2 mg/ml of 3-(4,5-dimethythiazol-2-yl)-2,5-diphenyl tetrazolium bromide (MTT). After 4 hours incubation, the resulting formazan product was solubilized by addition of DMSO and the resulting color was measured by a plate reader. […] For quantification, the cells in each treated well were manually counted using a light microscope (FIG. 5C). […]\nFIGS. 6A-6C show the effect of cyclic peptide (MTI-101) on RAW 264.7 cells and on RAW 264.7 cell-differentiated osteoclasts. […] The resulting Annexin V positivity was determined using Calibur Flow cytometry. […] After 4 hours incubation the resulting formazan product was solubilized by addition of DMSO and the resulting color was measured by a plate reader. […] For quantification, the cells in each treated well were manually counted using a light microscope. […]"}, "[1]": {"assay": "Stability of MTI-101 in plasma (rat)", "format": "in vitro ADME"}, "[2]": {"assay": "Stability of MTI-101 in plasma (dog)", "format": "in vitro ADME"}, "[3]": {"assay": "Stability of MTI-101 in plasma (mouse)", "format": "in vitro ADME", "details": "room temperature"}, "tumor bearing tibias": {"tested_on": "tumor bearing tibias", "assay": "Bone density (BV/TV) of tumor bearing tibias by CT scanning in myeloma model", "format": "in vivo", "details": "compared to vehicle control (VC) treated tumor bearing mice", "description": "FIG. 43. MTI-101 treated mice show increased trabecular bone density compared to tumor-bearing vehicle control-treated mice (VC). The same 10 tibia bones imaged by Faxitron in FIG. 43 were imaged with a Micro PET/SPECT/CT (Siemens Inveon). After imaging, the bones were reconstructed using COBRA (Constraint Based Reconstruction and Analysis) and analyzed with the Siemens Inveon workstation. 30 separate longitudinal images for each tibia were measured for both bone volume and total volume with the indicated parameters (2 mm below growth plate to 2 mm above junction with fibula). All 30 images were combined and the tibia were analyzed by bone volume/total volume (BV/TV). Images of the control group were compared to both MTI-101 and bortezomib treated mice. […] The same bones that were assayed for tumor volume in FIG. 43 were used to determine bone density by CT scanning."}, "[4]": {"details": "reported; independent of the direct effect on the myeloma cell; cited from earlier work"}, "[5]": {"details": "4 degrees Celsius, read-out: Stability - 24 Hour 4 Degrees Celsius"}, "[6]": {"details": "room temperature, read-out: Stability - 24 Hour Room Temperature"}}, "note": "Numbered stars: 1 amine (or outer) side, 2 acyl side, 3 side chain; on linkers, the order of the positions; unused ones are H or OH. Bridge positions count the residues as written; N and C are the ends. Square brackets hold non-standard residues; d marks the D form. Peptide text beside a SMILES is read from it. * marks the point of attachment. dProlinol(O-CH2CO) = O=C(COC[C@H]1CCCN1[*:1])[*:2]; N(2-Aminoethyl)Gly = O=C(CN(CCN[*:3])[*:1])[*:2]; Nle = CCCC[C@H](N)C(=O)O; Ms = CS(=O)(=O)*"}
{"compound": "CCCC[C@@H]1NC(=O)CN(S(C)(=O)=O)CCNC(=O)[C@H](CCCCN)NC(=O)[C@H](CC(C)C)NC(=O)[C@H](CCCCN)NC(=O)[C@H](CC(C)C)NC(=O)[C@H](CCCCN)NC(=O)COC[C@H]2CCCN2C(=O)[C@H](Cc2c[nH]c3ccccc23)NC(=O)[C@H](C)NC(=O)[C@H](C(C)C)NC(=O)[C@H](C(C)C)NC1=O", "note": "[MTI-101] (Ms-[N(2-Aminoethyl)Gly][Nle]VVAW[dProlinol(O-CH2CO)]KLKLK; lactam 1-C)", "values": [{"measurement": "cell death (Annexin V positivity)", "setting": "RAW 264.7 cells; multiple dosing 6.25 to 50 μM on days 1, 3 and 5, read day 7", "value": "nor did it induce cell death"}, {"measurement": "cell death (Annexin V positivity)", "setting": "RAW 264.7 cells; single treatment 6.25 to 50 μM, 24 hrs", "value": "nor did it induce cell death"}, {"measurement": "remaining at 24 h", "setting": "[1]; [5]", "value": 94, "unit": "%"}, {"measurement": "remaining at 24 h", "setting": "[1]; [6]", "value": 90, "unit": "%"}, {"measurement": "remaining at 24 h", "setting": "[2]; [5]", "value": 83, "unit": "%"}, {"measurement": "remaining at 24 h", "setting": "[2]; [6]", "value": 67, "unit": "%"}, {"measurement": "remaining at 24 h", "setting": "[3]", "value": 85, "unit": "%"}]}
{"compound": "CC(C)C[C@H](NC(=O)[C@H](Cc1ccccc1)NC(=O)c1cnccn1)B(O)O", "note": "[bortezomib]", "values": [{"measurement": "bone density (bone volume/total volume, BV/TV)", "setting": "tumor bearing tibias", "value": "increased bone density"}, {"measurement": "bone anabolic effects", "setting": "[4]", "value": "induce bone anabolic effects"}]}
{"compound": "CC(C)C[C@H](NC(=O)[C@H](CCc1ccccc1)NC(=O)CN1CCOCC1)C(=O)N[C@@H](Cc1ccccc1)C(=O)N[C@@H](CC(C)C)C(=O)[C@@]1(C)CO1", "note": "[carfilzomib]", "values": [{"measurement": "bone anabolic effects", "setting": "[4]", "value": "induce bone anabolic effects"}]}
